According to PMC12000511, “Molecular basis for the assembly of the Vps5-Vps17 SNX-BAR proteins with Retromer” (Nature Communications, 2025):
Like-named read-outs stand apart in the source and are kept apart here. Where no end group is shown, it is not given here.

What was measured:
[1] = biological target: ctRetromer (Chaetomium thermophilum Retromer trimer of ctVps35, ctVps26 and ctVps29) (Chaetomium thermophilum); assay: ITC; Microcal PEAQ ITC, 25 °C, 50 mM Tris-HCl pH 7.5, 200 mM NaCl, 2 mM β-ME; Vps5/Vps17/SNX1 construct or peptide (200-400 µM) titrated into 10-15 µM Retromer or Vps29; single-site model, N set to 1.0 if close to 1
ctRetromer = ctRetromer (Thermochaetoides thermophila, UniProt G0RZB5+G0S709); assay: ITC, binding to ctRetromer; parameters: species or system Chaetomium thermophilum
Chain of ctRetromer (G0RZB5 entry or part of it): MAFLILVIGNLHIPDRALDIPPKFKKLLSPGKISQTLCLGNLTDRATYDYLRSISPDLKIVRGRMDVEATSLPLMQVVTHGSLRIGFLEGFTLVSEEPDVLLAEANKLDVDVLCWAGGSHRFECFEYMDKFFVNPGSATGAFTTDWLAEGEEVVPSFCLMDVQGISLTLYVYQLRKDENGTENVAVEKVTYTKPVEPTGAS
Chain of ctRetromer (G0S709 entry or part of it): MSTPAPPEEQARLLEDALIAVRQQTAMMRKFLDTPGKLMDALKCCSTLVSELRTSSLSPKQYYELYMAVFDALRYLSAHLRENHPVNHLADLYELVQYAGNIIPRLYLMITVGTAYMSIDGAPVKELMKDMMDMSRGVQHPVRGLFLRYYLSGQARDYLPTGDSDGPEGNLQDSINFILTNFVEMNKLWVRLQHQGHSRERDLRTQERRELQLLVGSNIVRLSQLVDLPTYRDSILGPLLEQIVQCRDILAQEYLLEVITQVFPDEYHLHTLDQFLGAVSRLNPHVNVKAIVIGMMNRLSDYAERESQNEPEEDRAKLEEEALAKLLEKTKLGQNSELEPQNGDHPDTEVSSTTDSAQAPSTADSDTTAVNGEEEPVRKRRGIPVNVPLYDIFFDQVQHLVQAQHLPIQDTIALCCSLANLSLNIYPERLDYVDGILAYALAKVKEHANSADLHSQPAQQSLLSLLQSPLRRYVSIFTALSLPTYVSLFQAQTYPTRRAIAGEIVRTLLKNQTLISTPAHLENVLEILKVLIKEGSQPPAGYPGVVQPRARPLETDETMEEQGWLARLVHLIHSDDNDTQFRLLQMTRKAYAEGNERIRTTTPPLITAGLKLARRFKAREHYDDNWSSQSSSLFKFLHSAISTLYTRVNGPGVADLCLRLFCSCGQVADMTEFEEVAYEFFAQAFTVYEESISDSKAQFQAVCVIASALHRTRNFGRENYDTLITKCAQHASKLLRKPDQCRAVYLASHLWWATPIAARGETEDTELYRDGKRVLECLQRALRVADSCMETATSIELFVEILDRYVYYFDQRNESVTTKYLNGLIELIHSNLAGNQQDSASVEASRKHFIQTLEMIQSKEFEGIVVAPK
Chain of ctRetromer (G0S0E6 entry or part of it, further chain): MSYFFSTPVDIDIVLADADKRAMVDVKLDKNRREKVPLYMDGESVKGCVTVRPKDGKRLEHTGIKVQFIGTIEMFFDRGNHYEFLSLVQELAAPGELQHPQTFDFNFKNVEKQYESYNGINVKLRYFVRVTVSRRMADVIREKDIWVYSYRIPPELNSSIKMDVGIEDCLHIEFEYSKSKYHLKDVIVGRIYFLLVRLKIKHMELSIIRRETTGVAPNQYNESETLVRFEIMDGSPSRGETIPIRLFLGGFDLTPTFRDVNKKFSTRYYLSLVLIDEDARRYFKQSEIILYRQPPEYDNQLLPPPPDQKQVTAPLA
Procedure: (§1) All the bacterial constructs were expressed in BL21(DE3) competent cells using standard isopropyl 1-thio-β-D-galactopyranoside induction or autoinduction method as described previously[39],[72],[73]. To obtain the Retromer trimer complex, the GST-tagged Vps29 and Vps35 co-expressed cell pellet were mixed with His-Vps26 and resuspended in lysis buffer containing 50 mM Tris-HCl pH 7.5, 200 mM NaCl, 5% glycerol, 50 μg/ml benzamidine and DNase I before passed through a Constant System TS-Series cell disruptor. […] For all constructs, the lysate was clarified by centrifugation and the supernatant was loaded onto either Talon® resin (Clonetech) or glutathione sepharose (GE healthcare) for initial purification. To obtain the correct stoichiometry ratio of the Retromer complex, both Talon® resin and glutathione sepharose (GE healthcare) were applied. […] The flow-through containing complex was further purified using size-exclusion chromatography (SEC) equilibrated with a buffer containing 50 mM Tris-HCl pH 7.5, 200 mM NaCl, 2 mM β-ME. […] To avoid the non-specific cleavage by the residual proteases such as thrombin, a tablet of protease inhibitor cocktail was added into the complex mixture. To remove the unbound fractions, the complex mixture was further purified using Superose 6 increase 10/300 GL column using the SEC buffer described above.
In brief, the clarified lysate was loaded onto glutathione sepharose (GE healthcare) and eluted using elution buffer containing 50 mM Tris-HCl pH 7.5, 200 mM NaCl, 5% glycerol, 20 mM glutathione reduced and 50 μg/ml benzamidine. The flow-through was further purified using SEC as the final purification step. To avoid the degradation, the constructs containing N-terminal disordered parts of Vps5 and Vps17 were used in fresh and experiments were finished within 3 days after purification.
(§2) All the proteins used for ITC experiments were prepared in buffer containing 50 mM Tris-HCl pH 7.5, 200 mM NaCl, 2 mM β-ME. […] In all cases, the ITC titration sequence consisted of an initial 0.4 μl (not used in data processing) followed by 12 serial injections of 3.22 μl each with 180 s intervals. The resulting titration data were integrated with Malvern software package by fitting and normalized data to a single-site binding model, yielding the thermodynamic parameters Kd, ∆H, ∆G and −T∆S for all binding experiments. The stoichiometry was refined initially, and if the value was close to 1, then N was set to exactly 1.0 for calculation. Data presented are the mean of triplicate titrations for each experiment.

[2] = biological target: mouse VPS29 (mVPS29), long isoform (mouse); assay: ITC; Microcal PEAQ ITC, 25 °C, 50 mM Tris-HCl pH 7.5, 200 mM NaCl, 2 mM β-ME; Vps5/Vps17/SNX1 construct or peptide (200-400 µM) titrated into 10-15 µM Retromer or Vps29; single-site model, N set to 1.0 if close to 1
mVps29 = biological target: T1, mVps29 (Mus musculus, UniProt Q9QZ88); assay: ITC, binding to mVps29; details: ITC, mVps29
T1 construct: GST (thrombin site) (N, cleaved yes); made in house; host or cells: E. coli BL21(DE3)
Procedure: as §1, §2

[3] = tested on: scRetromer and scSNX-BAR on supported membrane tubes; assay: Supported membrane tube (SMT) assay; assay type: biochemical, Saccharomyces cerevisiae; details: scSNX-BAR and scRetromer on SMTs containing 5% PtdIns(3)P
Procedure: Supported membrane tubes were generated as described[46]. Briefly, glass coverslips were first washed with 3 M NaOH for 5 min and rinsed with water before a 60 min treatment with piranha solution (95% H2SO4/30% H2O2 3:2 v/v). Coverslips were rinsed with water and dried on a heat block at 90 °C. Coverslips were then silanized with 3-glycidyloxypropyltrimethoxysilane (Catalogue no. 440167, Sigma) for 5 h under vacuum, rinsed with acetone and dried. Polyethylene glycol coating was done by placing the coverslips in a beaker containing PEG400 (Sigma) at 90 °C for 60 h. Coverslips were washed with distilled water and stored for up to 2 months at room temperature in a closed container.
To generate supported membrane tubes, lipids were mixed from 10 mg/mL stocks in a glass vial and diluted to a final concentration of 1 mg/mL in chloroform. The same lipid mix was used throughout this study (5% PI(3)P, 15% DOPS, 0.1% fluorescent lipid tracer (Cy5.5 PE or Texas red DHPE), 79.5% egg-PC). Lipids were then spotted (typically 1 µL, corresponding to about 1 nmol) on the coverslips and dried for 30 min under vacuum. The coverslip was mounted on an IBIDI 6-channel µ-slide (µ-Slide VI 0.4. IBIDI, catalog no: 80606). Lipids were hydrated for 15 min with buffer (PBS) and SMTs were generated by injecting PBS into the chamber using an Aladdin Single-Syringe Pump (World Precision Instruments, model n°. AL-1000) at a flow rate of 1,5 mL/min for 5 min. SMTs were left to stabilize without flow for 5 min before the start of the experiment. Protein stocks (typically 1–2 µM) were first diluted in PBS and then injected in the chamber at a flow rate of 80 µL per minute. Cyclic peptides were added to the proteins from a 30 mM stock in DMSO to a final concentration of 300 µM. the protein/peptide mix was incubated for 1 min at room temp (23 °C) before being added to the SMTubes.

hRetromer = biological target: T2, hRetromer (Homo sapiens, UniProt Q96QK1+Q9UBQ0); assay: ITC, binding to hRetromer; details: for binding to hRetromer: ITC, same conditions as ctRetromer
T2 construct: GST (N); made in house; host or cells: E. coli BL21(DE3) (general statement for bacterial constructs)
Procedure: as §1, §2

[4] = ITC, ctRetromer, Average of 3 batches
[5] = ctRetromer alone, ITC 25 °C, pH 7.5, 200 mM NaCl, mean of triplicate titrations

**Q.** “GST-ctVps5_(51–100) PL74AA (domain or fragment)” was tested. Which Kd [1] did it give?
**A.** 5.04 µM

**Q.** What about the dH [1] of the same molecule?
**A.** -1.76 kcal/mol

**Q.** How did the “Delta G” value (ctRetromer; [4]) turn out when “SRATPRRIVAKPKSLEAVEDDPLGPLGA [ctVPS5 53 to 80]” was run?
**A.** -8.38 kcal/mol

**Q.** And the “Delta H” value (ctRetromer; [4])?
**A.** -2.83 kcal/mol

**Q.** What about the “minus T delta S” value (ctRetromer; [4]) of the same molecule?
**A.** -5.57 kcal/mol

**Q.** What about the “Delta G” value (ctRetromer; ITC, ctRetromer, Batch 1) of the same molecule?
**A.** -8.4 kcal/mol

**Q.** What about the “Delta H” value (ctRetromer; ITC, ctRetromer, Batch 1) of the same molecule?
**A.** -3.44 kcal/mol

**Q.** And the “minus T delta S” value (ctRetromer; ITC, ctRetromer, Batch 1)?
**A.** -4.89 kcal/mol

**Q.** And the “Delta G” value (ctRetromer; ITC, ctRetromer, Batch 2)?
**A.** -8.35 kcal/mol

**Q.** And the “Delta H” value (ctRetromer; ITC, ctRetromer, Batch 2)?
**A.** -2.43 kcal/mol

**Q.** What about the “minus T delta S” value (ctRetromer; ITC, ctRetromer, Batch 2) of the same molecule?
**A.** -5.98 kcal/mol

**Q.** What about the “Delta G” value (ctRetromer; ITC, ctRetromer, Batch 3) of the same molecule?
**A.** -8.38 kcal/mol

**Q.** What about the “Delta H” value (ctRetromer; ITC, ctRetromer, Batch 3) of the same molecule?
**A.** -2.62 kcal/mol

**Q.** And the “minus T delta S” value (ctRetromer; ITC, ctRetromer, Batch 3)?
**A.** -5.85 kcal/mol

**Q.** What does the source list for “GST-ctVps5_61–80: GST-tagged ctVps5 residues 61–80 (VAKPKSLEAVEDDPLGPLGA; not fully specified (N-terminus); also: GST fusion, end not given here)”?
**A.** binding to ctRetromer (ctRetromer; ITC 25 °C, pH 7.5, 200 mM NaCl): bind very weakly; ΔG (ctRetromer; [5]): -5.76 ± 0.12 kcal/mol; ΔH (ctRetromer; [5]): -7.22 ± 1.94 kcal/mol; −TΔS (ctRetromer; [5]): 1.45 ± 2.07 kcal/mol; Kd (ctRetromer; ctRetromer alone, Microcal PEAQ ITC, 25 °C, 50 mM Tris-HCl pH 7.5, 200 mM NaCl, 2 mM β-ME, single-site model, mean of triplicate titrations, read-out: Kd): 60.1 ± 12.2 µM

**Q.** Which Kd [1] does the source give for GST-ctVps5_(1–50) (domain or fragment) here?
**A.** 40.1 µM

**Q.** What about the dH [1] of the same molecule?
**A.** -2.7 kcal/mol

**Q.** Which results are given for GST-ctVps5_(1–185) (domain or fragment)?
**A.** Kd [1]: 0.72 µM; dH [1]: -3.1 kcal/mol; Kd [2]: 4.82 µM; dH [2]: -0.91 kcal/mol

**Q.** How did the Kd (ctRetromer; read-out: Kd) turn out when “SRATPRRIVAKPKSLEAVEDDPLGPLGA [ctVps5_53–80 peptide]” was run?
**A.** 0.74 ± 0.05 µM

**Q.** For EDDPLGPLGA [ctVPS5 71 to 80], which Kd (ctRetromer; ITC, ctRetromer, Batch 1) is on record?
**A.** No binding

**Q.** And the Kd (ctRetromer; ITC, ctRetromer, Batch 2)?
**A.** No binding

**Q.** And the Kd (ctRetromer; ITC, ctRetromer, Batch 3)?
**A.** No binding

**Q.** What about the “Delta G” value (mVps29; Average of 3 batches) of the same molecule?
**A.** -5.8 kcal/mol

**Q.** And the “Delta H” value (mVps29; Average of 3 batches)?
**A.** -8.0 kcal/mol

**Q.** And the “Delta G” value (mVps29; Batch 1)?
**A.** -5.92 kcal/mol

**Q.** What about the “Delta H” value (mVps29; Batch 1) of the same molecule?
**A.** -6.98 kcal/mol

**Q.** And the “Delta G” value (mVps29; Batch 2)?
**A.** -5.8 kcal/mol

**Q.** What about the “Delta H” value (mVps29; Batch 2) of the same molecule?
**A.** -9.07 kcal/mol

**Q.** What about the “Delta G” value (mVps29; Batch 3) of the same molecule?
**A.** -5.82 kcal/mol

**Q.** What about the “Delta H” value (mVps29; Batch 3) of the same molecule?
**A.** -7.81 kcal/mol

**Q.** How did the “coat formation / recruitment on SMTs” value [3] turn out when “scRetromer-mRuby: purified recombinant scRetromer carrying mRuby” was run?
**A.** co-recruited to the tubes within a minute after their addition

**Q.** With ctVps5_(71–80) peptide as the molecule, how does the Kd [2] read?
**A.** 54.1 µM

**Q.** And the dH [2]?
**A.** -8 kcal/mol

B1: GST-mSNX1_1–139: SNX1 N-terminal residues 1–139 (protein)
chain: MASGGGGCSASERLPPPFPGLEPESEGAAGGSEPEAGDSDTEGEDIFTGAAVVSKHQSPKITTSLLPINNGSKENGIHEEQDQEPQDLFADATVELSLDSTQNNQKKVLAKTLISLPPQEATNSSKPQPTYEELEEEEQ
modifications: left off: GST, end not stated, kept
**Q.** Which results are given for B1?
**A.** Kd (hRetromer; ITC 25 °C, 50 mM Tris-HCl pH 7.5, 200 mM NaCl, 2 mM β-ME, mean of triplicate titrations): No binding detected; binding to hRetromer (hRetromer; listed as GST-hSNX1_1–139): no detectable interaction; binding to hRetromer (hRetromer; listed as human SNX1): no detectable association

B2: scSNX-BAR-GFP: scVps5–scVps17 heterodimer tagged with GFP (protein)
chain 1: MDYEDNLEAPVWDELNHEGDKTQSLVSNSIESIGQISTNEERKDNELLETTASFADKIDLDSAPEWKDPGLSVAGNPQLEEHDNSKADDLINSLAPEQDPIADLKNSTTQFIATRESGGALFTGNANSPLVFDDTIYDANTSPNTSKSISGRRSGKPRILFDSARAQRNSKRNHSLKAKRTTASDDTIKTPFTDPLKKAEKENEFVEEPLDDRNERRENNEGKFTASVEKNILEQVDRPLYNLPQTGANISSPAEVEENSEKFGKTKIGSKVPPTEKAVAFKVEVKDPVKVGELTSIHVEYTVISESSLLELKYAQVSRRYRDFRWLYRQLQNNHWGKVIPPPPEKQSVGSFKENFIENRRFQMESMLKKICQDPVLQKDKDFLLFLTSDDFSSESKKRAFLTGSGAINDSNDLSEVRISEIQLLGAEDAAEVLKNGGIDAESHKGFMSISFSSLPKYNEADEFFIEKKQKIDELEDNLKKLSKSLEMVDTSRNTLAASTEEFSSMVETLASLNVSEPNSELLNNFADVHKSIKSSLERSSLQETLTMGVMLDDYIRSLASVKAIFNQRSKLGYFLVVIENDMNKKHSQLGKLGQNIHSEKFREMRKEFQTLERRYNLTKKQWQAVGDKIKDEFQGFSTDKIREFRNGMEISLEAAIESQKECIELWETFYQTNL
chain 2: MTSAVPYDPYDDLDNNPFAEPQEEDSEPAATTTDGSSSMSEERVGTEQTAASVQDNGTANNIQNGLGEEGNATRSKTSNEHNENQQPSQPSERVILPERSDEKKKYTLLAKVTGLERFGSATGKKENPTIIFDCSTNLPTFRKQQYKNVKKSYEEFHQLFKYLNVAIQESFVPTLPSAYTTFGINSEEDRMKVTRNFQLWFNRLSQDPLIIRNEEVAFFIESDFNTYTPINKSKSLASGLKRKTLKQLAPPYDEITELAEFRPLVKSIYVVSQSLQEKLLRVSRNRKMMVQEENAFGQDFVNLDEHNKLYRRYGKILTAVGDIDSIIATMDMATLYDGLEWIVRDAYAVKEALTNRHFIMRNLVQAQQNSKAKQEQARRFRSRRDINPMKIDEALRQLKAAAKNEQVLTLKLQRITSNMIIERKQWISWYEEWIRSSIKEFTLRKIEYERKKLTLLERVRSDIRKADENGGLSRLGRHAVSNNNSDTSQTLKGDSWTGESNRKSQIPINKIAHTEFDDELFTEDDGYNSQDSDTTSLNARHAASLLGMSTK
**Q.** For B2, which “coat formation / recruitment on SMTs” value [3] is on record?
**A.** co-recruited to the tubes within a minute after their addition

B3: ctVps5_(53–80) peptide (peptide)
peptide: SRATPRRIVAKPKSLEAVEDDPLGPLGA
**Q.** How did the Kd [1] turn out when B3 was run?
**A.** 0.74 µM

**Q.** What about the dH [1] of the same molecule?
**A.** -2.83 kcal/mol

B4: GST-ctVps5_(61–80) (domain or fragment)
chain: VAKPKSLEAVEDDPLGPLGA
modifications: also: GST fusion
**Q.** With B4 as the molecule, how does the Kd [1] read?
**A.** 60.1 µM

**Q.** And the dH [1]?
**A.** -7.22 kcal/mol
